Experimental data from PubChem BioAssay AID1963868 (Molecular Pharmacology Branch, DTP, NCI, 2024).

Test system: KRAS PDC tumor spheroids (HUVEC+MSC), viability
Test: Anticancer human tumor 254851-301-R-J1-PDC patient-derived colon carcinoma cell line growth inhibition [KRAS2]
Conditions: for IC50: curve of first compound; for viability, T/C: stronger effect = lower value
Method in brief: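 Combination screen of spheroid viability in tumor-cell co-cultures with endothelial (HUVEC) and mesenchymal stem cell stroma. Each agent was tested in half-log dilutions, topping at clinical Cmax or at 10 microM without a known Cmax.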

[1] = second compound 0.1 µM, first compound 0.0316 µM
[2] = second compound 0.1 µM, first compound 0.1 µM
[3] = second compound 0.316 µM, first compound 0.0316 µM
[4] = second compound 0.316 µM, first compound 0.1 µM
[5] = second compound 1 µM, first compound 0.0316 µM
[6] = second compound 1 µM, first compound 0.1 µM
[7] = second compound 3.16 µM, first compound 0.0316 µM
[8] = second compound 3.16 µM, first compound 0.1 µM
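Also: spheroids exposed to compounds for seven days before readout.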
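For viability, T/C in this document: 100% = DMSO vehicle control luminescence of the spheroids.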

CC(C)n1nc(-c2ccc3oc(N)nc3c2)c2c(N)ncnc21 + CC1OCC2(CCN(c3cnc(Sc4ccnc(N)c4Cl)c(N)n3)CC2)C1N
IC50 (second compound 0.1 µM): 17.5 nM | IC50 (second compound 0.316 µM): 20.5 nM | IC50 (second compound 1 µM): 18.6 nM | IC50 (second compound 3.16 µM): 15.8 nM | IC50 (second compound 10 µM): 11.3 nM | viability, T/C (second compound 0.1 µM, first compound 0.000316 µM): 103% | viability, T/C (second compound 0.1 µM, first compound 0.001 µM): 98.2% | viability, T/C (second compound 0.1 µM, first compound 0.00316 µM): 89.3% | viability, T/C (second compound 0.1 µM, first compound 0.01 µM): 69.8% | viability, T/C [1]: 29.4% | viability, T/C [2]: 19.9% | viability, T/C (second compound 0.316 µM, first compound 0.000316 µM): 101% | viability, T/C (second compound 0.316 µM, first compound 0.001 µM): 99.7% | viability, T/C (second compound 0.316 µM, first compound 0.00316 µM): 88.8% | viability, T/C (second compound 0.316 µM, first compound 0.01 µM): 75.3% | viability, T/C [3]: 34.4% | viability, T/C [4]: 23.2% | viability, T/C (second compound 1 µM, first compound 0.000316 µM): 87.1% | viability, T/C (second compound 1 µM, first compound 0.001 µM): 78.5% | viability, T/C (second compound 1 µM, first compound 0.00316 µM): 84.5% | viability, T/C (second compound 1 µM, first compound 0.01 µM): 64.8% | viability, T/C [5]: 36.8% | viability, T/C [6]: 19.6% | viability, T/C (second compound 3.16 µM, first compound 0.000316 µM): 74.7% | viability, T/C (second compound 3.16 µM, first compound 0.001 µM): 72.5% | viability, T/C (second compound 3.16 µM, first compound 0.00316 µM): 72.3% | viability, T/C (second compound 3.16 µM, first compound 0.01 µM): 63.1% | viability, T/C [7]: 30.2% | viability, T/C [8]: 18.4% | viability, T/C (second compound 10 µM, first compound 0.000316 µM): 65% | viability, T/C (second compound 10 µM, first compound 0.001 µM): 71.7% | viability, T/C (second compound 10 µM, first compound 0.00316 µM): 66.6% | viability, T/C (second compound 10 µM, first compound 0.01 µM): 50.9% | viability, T/C (second compound 10 µM, first compound 0.0316 µM): 31.3% | viability, T/C (second compound 10 µM, first compound 0.1 µM): 18.1%

CCNC(=O)CC1N=C(c2ccc(Cl)cc2)c2cc(OC)ccc2-n2c(C)nnc21 (stereo not given) + C=CC(=O)N1CCN(c2nc(OCC3CCCN3C)nc3c2CCN(c2cccc4cccc(C)c24)C3)CC1CC#N
IC50 (second compound 0.0316 µM): > 10000 nM | IC50 (second compound 0.1 µM): > 10000 nM | IC50 (second compound 0.316 µM): > 10000 nM | IC50 (second compound 1 µM): 3640 nM | IC50 (second compound 3.16 µM): < 31.6 nM | viability, T/C (second compound 0.0316 µM, first compound 0.0316 µM): 98.7% | viability, T/C (second compound 0.0316 µM, first compound 0.1 µM): 90.4% | viability, T/C (second compound 0.0316 µM, first compound 0.316 µM): 88.5% | viability, T/C (second compound 0.0316 µM, first compound 1 µM): 92.2% | viability, T/C (second compound 0.0316 µM, first compound 3.16 µM): 80.6% | viability, T/C (second compound 0.0316 µM, first compound 10 µM): 66.9% | viability, T/C [1]: 102% | viability, T/C [2]: 87.8% | viability, T/C (second compound 0.1 µM, first compound 0.316 µM): 94.6% | viability, T/C (second compound 0.1 µM, first compound 1 µM): 78.9% | viability, T/C (second compound 0.1 µM, first compound 3.16 µM): 73.5% | viability, T/C (second compound 0.1 µM, first compound 10 µM): 68.9% | viability, T/C [3]: 105% | viability, T/C [4]: 92.9% | viability, T/C (second compound 0.316 µM, first compound 0.316 µM): 94.7% | viability, T/C (second compound 0.316 µM, first compound 1 µM): 72.6% | viability, T/C (second compound 0.316 µM, first compound 3.16 µM): 68% | viability, T/C (second compound 0.316 µM, first compound 10 µM): 73.4% | viability, T/C [5]: 66.2% | viability, T/C [6]: 66.5% | viability, T/C (second compound 1 µM, first compound 0.316 µM): 61.2% | viability, T/C (second compound 1 µM, first compound 1 µM): 52.9% | viability, T/C (second compound 1 µM, first compound 3.16 µM): 48.9% | viability, T/C (second compound 1 µM, first compound 10 µM): 47.6% | viability, T/C [7]: 46.9% | viability, T/C [8]: 53.7% | viability, T/C (second compound 3.16 µM, first compound 0.316 µM): 46.1% | viability, T/C (second compound 3.16 µM, first compound 1 µM): 43.5% | viability, T/C (second compound 3.16 µM, first compound 3.16 µM): 29.9% | viability, T/C (second compound 3.16 µM, first compound 10 µM): 23.3%
